Data as given in ChEMBL document CHEMBL2163318, “Phenylalanine derivatives as GPR142 agonists for the treatment of type II diabetes” (Bioorg Med Chem Lett, 2012).
The source made the active and inactive calls. The calls are words filed in the database; no cut-off is given here.

Assays:
[1] = Metabolic stability of rat microsomes assessed as compound turnover at 1 uM after 30 mins by LC-MS analysis; format: ADME, Microsome; conditions: read-out: Drug metabolism
[2] = molecular target: T1, Probable G-protein coupled receptor 142 (Homo sapiens) (UniProt Q7Z601); experiment: Agonist activity at human GPR142 expressed in HEK293 cells assessed as inositol phosphate accumulation at 10 uM after 1 hr by scintillation counting; format: functional, cell-based
T1 sequence (whole entry): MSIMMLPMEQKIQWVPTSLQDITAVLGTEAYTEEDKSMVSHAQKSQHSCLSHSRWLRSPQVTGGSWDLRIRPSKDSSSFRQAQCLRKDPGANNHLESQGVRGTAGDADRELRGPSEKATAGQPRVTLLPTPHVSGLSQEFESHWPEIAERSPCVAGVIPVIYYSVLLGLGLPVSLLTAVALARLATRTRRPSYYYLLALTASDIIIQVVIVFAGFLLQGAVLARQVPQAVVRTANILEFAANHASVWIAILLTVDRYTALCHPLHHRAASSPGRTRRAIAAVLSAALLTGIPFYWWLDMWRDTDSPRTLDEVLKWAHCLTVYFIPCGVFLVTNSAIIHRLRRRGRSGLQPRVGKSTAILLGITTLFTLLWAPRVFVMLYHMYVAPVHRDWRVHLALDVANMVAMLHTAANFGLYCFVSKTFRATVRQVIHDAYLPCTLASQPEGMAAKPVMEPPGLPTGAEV

[3] = Metabolic stability of human microsomes assessed as compound turnover at 1 uM after 30 mins by LC-MS analysis; format: ADME, Microsome; conditions: read-out: Drug metabolism
[4] = molecular target: T2, Probable G-protein coupled receptor 142 (Homo sapiens, UniProt Q7Z601); experiment: Agonist activity at human GPR142 expressed in HEK293 cells assessed as inositol phosphate accumulation after 1 hr by scintillation counting; format: functional, cell-based
T2 sequence (Q7Z601 whole entry): T1 sequence (whole entry)

[5] = molecular target: T3, Probable G-protein coupled receptor 142 (Mus musculus) (UniProt Q7TQN9); experiment: Partial agonist activity at mouse GPR142 expressed in HEK293 cells relative to control; format: functional, cell-based
T3 sequence (whole entry): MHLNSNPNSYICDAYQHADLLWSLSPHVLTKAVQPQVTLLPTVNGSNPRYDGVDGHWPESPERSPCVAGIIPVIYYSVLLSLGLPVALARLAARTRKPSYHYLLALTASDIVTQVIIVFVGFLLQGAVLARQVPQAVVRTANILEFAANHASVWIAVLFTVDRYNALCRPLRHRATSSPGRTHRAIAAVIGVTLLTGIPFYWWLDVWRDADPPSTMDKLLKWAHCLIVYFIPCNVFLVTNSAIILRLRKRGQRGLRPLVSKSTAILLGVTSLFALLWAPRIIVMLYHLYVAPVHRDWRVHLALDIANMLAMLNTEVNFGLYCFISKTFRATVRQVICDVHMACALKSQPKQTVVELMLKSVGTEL

[6] = Clearance in rat at 0.67 mg/kg, iv; format: ADME, organism-based; set-up: dose 0.67 mg/kg, route intravenous; conditions: in vivo
[7] = Half life in rat at 0.67 mg/kg, iv; format: ADME, organism-based; set-up: dose 0.67 mg/kg, route intravenous; conditions: in vivo
[8] = AUC in rat at 0.67 mg/kg, iv; format: ADME, organism-based; set-up: dose 0.67 mg/kg, route intravenous; conditions: plasma
[9] = Volume of distribution at steady state in rat at 0.67 mg/kg, iv; format: ADME, organism-based; set-up: dose 0.67 mg/kg, route intravenous; conditions: in vivo, read-out: Vdss
[10] = Oral bioavailability in rat at 2 mg/kg; format: ADME, organism-based; conditions: in vivo
[11] = molecular target: T1, Probable G-protein coupled receptor 142 (Homo sapiens); experiment: Agonist activity at human GPR142 expressed in HEK293 cells assessed as inositol phosphate accumulation after 1 hr by scintillation counting in presence of 100% serum; format: functional, cell-based
[12] = AUC in rat at 2 mg/kg, po; format: ADME, organism-based; set-up: dose 2 mg/kg, route oral; conditions: plasma
[13] = Mean residence time in rat at 2 mg/kg, po; format: ADME, organism-based; set-up: dose 2 mg/kg, route oral; conditions: in vivo
[14] = Clearance in rat at 0.5 mg/kg, iv; format: ADME, organism-based; set-up: dose 0.5 mg/kg, route intravenous; conditions: in vivo
[15] = Half life in rat at 0.5 mg/kg, iv; format: ADME, organism-based; set-up: dose 0.5 mg/kg, route intravenous; conditions: in vivo
[16] = AUC in rat at 0.5 mg/kg, iv; format: ADME, organism-based; set-up: dose 0.5 mg/kg, route intravenous; conditions: plasma
[17] = Volume of distribution at steady state in rat at 0.5 mg/kg, iv; format: ADME, organism-based; set-up: dose 0.5 mg/kg, route intravenous; conditions: in vivo, read-out: Vdss
[18] = Clearance in rat; format: ADME, organism-based; conditions: in vivo

Row | SMILES | metabolised at 0.5 h, 1 µM [1] [%] | Emax [2] [%] | metabolised at 0.5 h, 1 µM [3] [%] | EC50 [4] [µM] | also measured
1 | C[C@@H](N[C@@H](Cc1ccccc1)C(=O)Nc1cc(-c2ccncc2)c[nH]c1=O)c1ccccn1 | 95 | 60 | 95 | 6 | –
2 | CC(C)(N[C@@H](Cc1ccccc1)C(=O)Nc1cc(-c2ccncc2)c[nH]c1=O)c1ccccn1 | 100 | 57 | > 95 | 9.45 | –
3 | O=C(Nc1cc(-c2ccncc2)c[nH]c1=O)[C@H](Cc1ccccc1)NC[C@H]1CCCO1 | 98 | 78 | 83 | 0.39 | –
4 | O=C(Nc1cc(-c2ccncc2)c[nH]c1=O)[C@H](Cc1ccccc1)NCc1ccccn1 | 95 | 155 | 95 | 0.095 | –
5 | CNc1cc(-c2nnc(NC(=O)[C@H](Cc3ccccc3)NCc3cscn3)s2)ccn1 | 66 | 96 | 58 | 0.036 | Emax [5]: 37%; clearance [6]: 0.23 L/h/kg; half-life [7]: 1.2 h; AUC [8]: 3.03 µg·h/mL; Vd [9]: 0.23 L/kg; bioavailability [10]: 36%; Activity [11]: inactive; AUC [12]: 1.73 µg·h/mL; MRT [13]: 2.36 h
6 | O=C(Nc1cc(-c2ccncc2)c[nH]c1=O)[C@H](Cc1ccccc1)NCCc1ccccn1 | 100 | 76 | 100 | 1.32 | –
7 | O=C(Nc1nnc(-c2cncs2)s1)[C@H](Cc1ccccc1)NCc1cscn1 | 57 | 74 | 29 | 0.39 | clearance [14]: 2.4 L/h/kg; bioavailability [10]: 32%
8 | Cn1cncc1-c1nnc(NC(=O)[C@H](Cc2ccccc2)NCc2cscn2)s1 | 35 | 86 | 19 | 0.18 | clearance [14]: 1.7 L/h/kg; bioavailability [10]: 19%
9 | Cn1ccc(CN[C@@H](Cc2ccccc2)C(=O)Nc2cc(-c3ccncc3)c[nH]c2=O)n1 | 100 | 92 | 90 | 0.21 | –
10 | O=C(Nc1cc(-c2ccncc2)c[nH]c1=O)[C@H](Cc1ccccc1)NC1(c2ncccn2)CC1 | 67 | 114 | 21 | 0.099 | –
11 | O=C(Nc1nnc(-c2ccncc2)s1)[C@H](Cc1ccccc1)NCc1cscn1 | 10 | 115 | 14 | 0.086 | half-life [15]: 1.2 h; AUC [16]: 1.24 µg·h/mL; clearance [14]: 0.44 L/h/kg; Vd [17]: 0.21 L/kg; bioavailability [10]: 10%; Activity [11]: Active; AUC [12]: 0.48 µg·h/mL; MRT [13]: 1.93 h
12 | O=C(Nc1cc(-c2ccncc2)c[nH]c1=O)[C@H](Cc1ccccc1)NCc1ncccn1 | 99 | 95 | 90 | 0.44 | –
13 | O=C1CC[C@H](CN[C@@H](Cc2ccccc2)C(=O)Nc2cc(-c3ccncc3)c[nH]c2=O)N1 | 67 | 78 | 19 | 2.23 | –
14 | COc1ncc(-c2ccncc2)cc1NC(=O)[C@H](Cc1ccccc1)NC1(c2ccccn2)CC1 | 54 | 123 | 15 | 0.35 | Activity [11]: inactive; clearance [18]: 1.3 L/h/kg
15 | O=C(O)Cn1cc(-c2ccncc2)cc(NC(=O)[C@H](Cc2ccccc2)NC2(c3ccccn3)CC2)c1=O | 12 | 83 | 10 | 0.26 | clearance [18]: 5 L/h/kg
16 | O=C(Nc1cc(-c2ccncc2)c[nH]c1=O)[C@H](Cc1ccccc1)NCCC1CCOCC1 | 80 | 84 | 66 | 1.06 | –
17 | O=C(Nc1cc(-c2ccncc2)c[nH]c1=O)[C@H](Cc1ccccc1)NCc1c[nH]cn1 | 96 | 107 | 60 | 0.11 | –
18 | O=C(Nc1cc(-c2ccncc2)c[nH]c1=O)[C@H](Cc1ccccc1)NCC1CCS(=O)(=O)CC1 | 58 | 91 | 21 | 20 | –
19 | CCC(N[C@@H](Cc1ccccc1)C(=O)Nc1cc(-c2ccncc2)c[nH]c1=O)c1ccccn1 (mixture of isomers) | 95 | 81 | 85 | 0.73 | –
20 | Cc1cc(CN[C@@H](Cc2ccccc2)C(=O)Nc2cc(-c3ccncc3)c[nH]c2=O)no1 | 95 | 93 | 78 | 2.2 | –
21 | O=C(Nc1cc(-c2ccncc2)c[nH]c1=O)[C@H](Cc1ccccc1)NCc1cscn1 | 99 | – | 68 | 0.93 | Activity [11]: Active
22 | C[C@H](N[C@@H](Cc1ccccc1)C(=O)Nc1cc(-c2ccncc2)c[nH]c1=O)c1ccccn1 | 99 | 107 | 100 | 0.22 | –
23 | Cc1nc(C2(N[C@@H](Cc3ccccc3)C(=O)Nc3cc(-c4ccncc4)c[nH]c3=O)CC2)cs1 | 74 | 106 | 64 | 0.2 | –
24 | CN(C)CCn1cc(-c2ccncc2)cc(NC(=O)[C@H](Cc2ccccc2)NC2(c3ccccn3)CC2)c1=O | 22 | 118 | 19 | 0.28 | clearance [18]: 3.1 L/h/kg
